The values below come from paper PMC3317655, “The Isolation and Characterization of β-Glucogallin as a Novel Aldose Reductase Inhibitor from Emblica officinalis” (PLoS ONE, 2012).

In test [1] the target is T1, human aldose reductase (AKR1B1) (Homo sapiens, UniProt P15121). Put plainly: Ex vivo culture of transgenic mouse lenses expressing human AKR1B1; sorbitol accumulation at […] sorbinil. As to conditions: read-out: % inhibition of sorbitol accumulation at 10 μM. It counts as cell-based.
Test [2] has as its target T1, human aldose reductase (AKR1B1). Put plainly: Purified recombinant enzyme, NADPH oxidation at […] nm, saturating glucose ([…]) as substrate. Format: biochemical.

On to `O=C1NC(=O)[C@@]2(CCOc3ccc(F)cc32)N1` [sorbinil], for which the inhibition (in general, how much of the control response was suppressed) at 10 µM in test [1] came out at 97%.

`O=C(O[C@@H]1O[C@H](CO)[C@@H](O)[C@H](O)[C@H]1O)c1cc(O)c(O)c(O)c1` [β-glucogallin]: the IC50 – broadly, the concentration needed to halve the response being measured – in test [2] was found to be 17 ± 1 µM.
